pEC50: −log10 of the molar value. Where two headings read alike, the source gives them in different places.
Columns and labels:
HIV-1 (IIIB) = assay: microbe, parasite or virus in culture; assay type: cell-based; conditions: HIV-1 (IIIB) in MT-4 cells, 5 days incubation, Cell Titer Glo, read-out: MT4 EC50
pLAI reporter virus = assay: microbe, parasite or virus in culture; assay type: cell-based, HIV
E138K/Q148K = assay: HIV double mutant assay in MT-4 cells; assay type: cell-based; conditions: E138K/Q148K vs wild type HXB2, MT-4 cells, 5 day incubation
Experimental: (§1) The HIV double mutant assay assesses the changes in efficacy of antiviral compounds against viral mutants compared to wild type. Each of the three mutant virus strains in this panel contain two amino acid substitutions ([…], E138K/Q148K and E92Q/N155H) of the parental HXB2. Test compounds and controls were serially diluted and spotted in replicates into 384 well black assay plates using acoustic transfer (Echo). Replicate sets of plates were made for each strain. MT-4 cells were grown in batch, centrifuged and resuspended in fresh CCM media (RPMI w/10% FBS, 1% PS) at 2×10^6 cells/ml. Cells were batch infected with each mutant strain at optimized volumes (currently HXB2 25 ul/ml; […], E138K/Q148K and E92Q/N155H at 40 ul/ml cells). The size of each infection mix was based on number of sample plates to be tested. Each infection mix was transferred into 5 ml closed tubes and nutated rapidly on a shaker at 37 deg. incubator for 1 hour. The infection mixes were then diluted 25× in fresh CCM media then added to assay plates at 40 ul per well using a Viaflo 384 pipettor. After 5 day incubation at 37 degrees in a CO2 incubator, assay plates were processed with Cell-titer glo reagent using a ViaFlo 384 with an addition/mixing program. Plates were read immediately on Envision reader. Assay signals were plotted and dose response curves generated to determine individual compound EC50s. The effect of each mutation was assessed by comparing EC50s of wild type and mutant strains.

E92Q/N155H = assay: HIV double mutant assay in MT-4 cells; assay type: cell-based; conditions: E92Q/N155H vs wild type HXB2, MT-4 cells, 5 day incubation
Experimental: as §1

G140S/Q148R = assay: HIV double mutant assay in MT-4 cells; assay type: cell-based; conditions: G140S/Q148R vs wild type HXB2, MT-4 cells, 5 day incubation
Experimental: as §1

[1] = Half life, PK in monkeys after intravenous infusion; assay type: in vivo; conditions: cynomolgus, monkey, single-dose intravenous infusion for 30 minutes, plasma, read-out: Cyno half-life (converted)
Experimental: Test compound PK was determined in monkeys (Labcorp, Madison, WI) following a single-dose intravenous infusion for 30 minutes. The dosing vehicle was a mixture of N-methylpyrrolidone, polyethylene glycol 300, and water for intravenous administration in monkeys. […] Nonclinical plasma samples were prepared by addition of 200 μl cold acetonitrile/internal standard solution to 96-well plates containing 50 μl aliquots of each plasma sample. After protein precipitation, each of the supernatants (50 μl) were transferred to clean 96-well plates and diluted with 450 μl of water. The sample injection volume was 2 μl. Samples were analyzed by a multiple reaction monitoring LC-MS/MS method. […] Thermo Fisher Scientific), and the ABSciex QTRAP5500 Mass Spectrometer LC-MS/MS system. […] The following plasma PK parameters were estimated in nonclinical species (as appropriate): observed peak plasma concentration (Cmax), time to reach Cmax (Tmax), last quantifiable plasma concentration (Clast), t1/2, time of Clast (Tlast), area under the plasma concentration-time curve (AUC) from time 0 [NT], AUC from time 0 to infinity (AUCinf), CL, mean residence time (MRT), and volume of distribution at steady state (Vss).

MT-4 cells = assay: Cytotoxicity assay in MT-4 cells; conditions: uninfected MT-4 cells
in vitro = conditions: human, uninfected MT-4 cells
[2] = Human immunodeficiency virus 1, IIIB, MT4, 120 h
[3] = Human immunodeficiency virus 1, MT4, 72 h, read-out: RLUC 50% HS EC50
[4] = Human immunodeficiency virus 1, MT4, 72 h, read-out: RLUC CCM EC50

Row | Compound | pEC50 (HIV-1 (IIIB); [2]) | pEC50 (pLAI reporter virus; [3]) | pEC50 (pLAI reporter virus; [4]) | Double Mutant Shift (fold over wild type) (E138K/Q148K) [×] | Double Mutant Shift (fold over wild type) (E92Q/N155H) [×] | Double Mutant Shift (fold over wild type) (G140S/Q148R) [×] | half-life [1] [h] | pEC50 (HIV-1 (IIIB)) | CC50 (MT-4 cells) [nM] | pEC50 (pLAI reporter virus; read-out: RLUC CCM EC50) | CC50 at 5 days (in vitro) [nM] | pEC50 (pLAI reporter virus; CCM media (RPMI/10% FBS), MT-4 cells, 3 days, read-out: RLUC CCM EC50) | pEC50 (pLAI reporter virus; read-out: RLUC 50% HS EC50, 50% human serum media, MT-4 cells, 3 days)
1 | O=C(NCc1c(F)cc(F)cc1F)c1cn2c(c(O)c1=O)C(=O)N1CCCC[C@H]2C1 [Reference Compound A] | 8.96 | 8.70 | 9.46 | 13 | 2 | 10 | 3 | – | – | – | – | – | –
2 | CC1=NN(c2ccccc2)C2(CC[C@H](C)N3C[C@H]2n2cc(C(=O)NCc4c(F)cc(F)cc4F)c(=O)c(O)c2C3=O)C1 (single isomer, unassigned) [Example 90, (3′S,7′R)-12′-hydroxy-3′,5-dimethyl-1′,11′-dioxo-2-phenyl-N-(2,4,6-trifluorobenzyl)-1′,2,4,4′,5′,11′-hexahydro-3′H,7′H-spiro[pyrazole-3,6′-[2,7]methanopyrido[1,2-a][1,4]diazonine]-10′-carboxamide] | 8.37 | – | 8.89 | – | – | – | – | 8.49 | 20000 | 8.92 | 22300 | – | –
3 | O=C(NCc1ccc(F)cc1F)c1cn2c(c(O)c1=O)C(=O)N1CCCC3(CC3)[C@H]2C1 [Reference Compound C, reference compound] | 8.92 | 8.70 | 9.60 | 3 | 2 | 5 | – | – | – | – | – | – | –
4 | O=C(NCc1ccc(F)cc1F)c1cn2c(c(O)c1=O)C(=O)N1CCCC[C@H]2C1 [Reference Compound B] | 8.82 | 8.96 | 9.55 | 18 | 3 | 12 | 5 | – | – | – | – | – | –
5 | C[C@H]1CCC[C@H]2CN1C(=O)c1c(O)c(=O)c(C(=O)NCc3ccc(F)cc3F)cn12 [Reference Compound D] | 8.89 | 8.12 | 9.66 | 6 | 1 | 5 | 3 | – | – | – | – | – | –
6 | COC1=NO[C@@]2(CC[C@H](C)N3C[C@H]2n2cc(C(=O)NCc4ccc(F)cc4F)c(=O)c(O)c2C3=O)C1 [Example 40, (3′S,5S,7′R)—N-(2,4-difluorobenzyl)-12′-hydroxy-3-methoxy-3′-methyl-1′,11′-dioxo-1′,4′,5′,11′-tetrahydro-3′H,4H,7′H-spiro[isoxazole-5,6′-[2,7]methanopyrido[1,2-a][1,4]diazonine]-10′-carboxamide] | 9.10 | 7.65 | 9.70 | 4 | 1 | 5 | 12 | – | – | – | 34100 | – | –
7 | CC1=NO[C@@]2(CC[C@H](C)N3C[C@H]2n2cc(C(=O)NCc4ccc(F)cc4F)c(=O)c(O)c2C3=O)C1 [Example 1, (3'S,5S,7′R)—N-(2,4-difluorobenzyl)-12′-hydroxy-3,3′-dimethyl-1′,11′-dioxo-1′,4′,5′,11′-tetrahydro-3′H,4H,7′H-spiro[isoxazole-5,6′-[2,7]methanopyrido[1,2-a][1,4]diazonine]-10′-carboxamide] | 9.10 | 7.04 | 9.52 | 3 | 1 | 4 | 29 | – | – | 9.60 | 20400 | – | –
8 | (3′S,5S,7′R)—N-((2,4-difluorophenyl)methyl-d2)-12′-hydroxy-3,3′-dimethyl-1′,11′-dioxo-1′,4′,5′,11′-tetrahydro-3′H,4H,7′H-spiro[isoxazole-5,6′-[2,7]methanopyrido[1,2-a][1,4]diazonine]-10′-carboxamide-N′-^15N [Example 151] | – | – | – | – | – | – | – | 8.74 | 13800 | – | – | 9.52 | 7.16
9 | C[C@H]1CCC2(OCCCO2)[C@H]2CN1C(=O)c1c(O)c(=O)c(C(=O)NCc3c(F)cc(F)cc3F)cn12 [Example 128, (3′S,7′R)-12′-hydroxy-3′-methyl-1′,11′-dioxo-N-(2,4,6-trifluorobenzyl)-1′,4′,5′,11′-tetrahydro-3′H,7′H-spiro[[1,3]dioxane-2,6′-[2,7]methanopyrido[1,2-a][1,4]diazonine]-10′-carboxamide] | 8.96 | 7.74 | 9.70 | – | – | – | – | – | – | – | 20500 | – | –
10 | CC1=NO[C@]2(CC[C@H](C)N3C[C@H]2n2cc(C(=O)NCc4ccc(F)cc4F)c(=O)c(O)c2C3=O)C1 [Example 2, (3′S,5R,7′R)—N-(2,4-difluorobenzyl)-12′-hydroxy-3,3′-dimethyl-1′,11′-dioxo-1′,4′,5′,11′-tetrahydro-3′H,4H,7′H-spiro[isoxazole-5,6′-[2,7]methanopyrido[1,2-a][1,4]diazonine]-10′-carboxamide] | 7.95 | 8.04 | 8.59 | – | – | – | – | – | – | – | ≥ 50000 | – | –
